Results reported in patent publication US10501494B2, “Uses of peptides to treat brain injury and disease” (priority 2013, dated 2019).
Read-outs that look alike come from different tables or passages of the source.

Experiments:
[1] = system: chemokine receptor 8 (CCR8); assay: Blocking of chemokine receptor 8; type: cell-based
From the text: The peptides share activity to block diverse chemokine receptors. […] Thus again, with a different receptor target, the all-D peptide performs very similarly to its mostly L-amino acid prototype first described in Pert, 1986. (FIG. 3).

[2] = Survival of MethA ascites tumor-bearing mice treated with LPS; type: in vivo; settings: 1 mg/Kg, 50 μgm LPS i.p.; vehicle control 5/20
Experimental: Associated with the injection of LPS is the extensive production of tumor necrosis factor alpha (TNF-α). Mice injected with recombinant human TNF-α develop pilo erection of the hair (ruffling), diarrhea and a withdrawn and unkempt appearance, followed by death if sufficient amounts are given. Rats treated with TNF become hypotensive, tachypneic and die of sudden respiratory arrest. Administration of DAPTA (1 mg/Kg) to MethA ascites tumor-bearing mice that were treated with 50 μgm LPS by i.p. injection, had better survival (15/20 in the DAPTA treated group compared to 5/20 in the vehicle control treated group). Thus DAPTA blocks septic shock via innate immune pathways, like the Toll receptors, that cause inflammation in the brain and that are typically activated in injuries.

[3] = target: CCL2 (MCP-1) chemotaxis, CCR5/CCR2 (Homo sapiens, UniProt P41597); settings: human monocytes, FIG. 1
From the text: Triplicate determinations were made and results are expressed as the mean plus or minus SEM. The experiment shown is a direct comparison among all RAPs. Statistical analysis was by unpaired t-test, with significance set at the p<0.01 (*) level for difference from CCL2 only chemotaxis.

[4] = system: microglial and astrocytes; settings: daily peripheral administration, hippocampus; cited from earlier work
[5] = system: inflammatory cytokines; settings: Hu; Ruff, 2003; cited from earlier work
[6] = system: inflammatory cytokines; settings: Rat; unpublished
[7] = system: inflammatory cytokines; settings: Rat; Padi, 2012; cited from earlier work
[8] = nerve injury model; Padi; cited from earlier work
[9] = target: CCL2/CCR2 (Homo sapiens, UniProt P41597); settings: human monocytes
[10] = target: MIP-1β (CCL4)/CCR5 (Homo sapiens, UniProt P51681); settings: low (sub-pM) concentrations, MIP-1β 50 ng/mL, monocytes treated with GM-CSF for 48 hours
From the text: It is compared for biopotency with an all-D amino acid close analog whereby all of the amino acids are made in the D form (RAP-310) to block the CCR5 chemokine receptors.
Data are the average of triplicate determinations. Data are presented as Mean±SEM.

[11] = target: T1, CCR2 (MCP-1) (Homo sapiens, UniProt P41597); assay: MCP-1 elicited chemotaxis of human monocytes, all-D-pentapeptides (FIG. 2); type: cell-based; settings: 20 pM peptide for 30 minutes, MCP-1 0.6 nM for 2 hours, purified human monocytes
T1 construct: Purified human monocytes were treated with 20 pM of All-D-pentapeptides; endogenous in cells; host or cells: purified human monocytes
From the text: A representative experiment is shown comprising triplicate determinations and is presented as relative fluorescence units, Mean±SEM.

T1 sequence (P41597 whole entry): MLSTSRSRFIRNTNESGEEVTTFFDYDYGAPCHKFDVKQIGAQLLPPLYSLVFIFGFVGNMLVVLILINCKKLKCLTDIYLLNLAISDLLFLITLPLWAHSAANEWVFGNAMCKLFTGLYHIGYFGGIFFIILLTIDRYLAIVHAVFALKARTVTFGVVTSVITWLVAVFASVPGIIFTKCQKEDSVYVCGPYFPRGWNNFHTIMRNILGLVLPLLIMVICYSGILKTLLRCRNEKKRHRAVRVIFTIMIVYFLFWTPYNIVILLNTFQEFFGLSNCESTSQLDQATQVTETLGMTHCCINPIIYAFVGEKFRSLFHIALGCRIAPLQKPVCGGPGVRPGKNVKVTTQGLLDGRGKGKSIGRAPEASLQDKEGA
Sequence of MIP-1β (CCL4)/CCR5 (P51681 whole entry): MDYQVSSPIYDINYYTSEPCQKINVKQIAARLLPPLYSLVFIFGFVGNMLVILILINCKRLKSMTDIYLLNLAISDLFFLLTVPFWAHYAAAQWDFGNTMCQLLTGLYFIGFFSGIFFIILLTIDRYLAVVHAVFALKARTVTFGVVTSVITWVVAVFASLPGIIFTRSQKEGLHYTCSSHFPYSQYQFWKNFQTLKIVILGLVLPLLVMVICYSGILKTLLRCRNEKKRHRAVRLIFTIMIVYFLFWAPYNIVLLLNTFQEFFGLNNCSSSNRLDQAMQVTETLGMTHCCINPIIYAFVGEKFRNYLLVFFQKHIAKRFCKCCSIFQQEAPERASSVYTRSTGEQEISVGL
Sequence of CCL2 (MCP-1) chemotaxis, CCR5/CCR2 (P41597 whole entry): as the sequence (P41597 whole entry) above
Sequence of CCL2/CCR2 (P41597 whole entry): as above

## C[C@@H](N)C(=O)N[C@@H](CO)C(=O)N[C@H](C(=O)N[C@H](C(=O)N[C@H](C(=O)N[C@@H](CC(N)=O)C(=O)N[C@@H](Cc1ccc(O)cc1)C(=O)N[C@H](C(N)=O)[C@@H](C)O)[C@@H](C)O)[C@@H](C)O)[C@@H](C)O [RAP-101, D-Ala1-STTTNYT-NH2]
[1]
  blocking of CCR8: blocks
[2]
  survival: 15/20
[3]
  potency to block CCL2 (MCP-1) chemotaxis: most potent
[4]
  inflammatory response induced by LPS (number and reactive state of microglial and astrocytes, NFkB expression): dramatically attenuated
[5]
  IL-1 change: decrease
  IL-6 change: decrease
  IL-8 change: decrease
  TNF-α change: decrease

## C[C@H](O)[C@@H](N)C(=O)N[C@@H](C(=O)N[C@H](CC(N)=O)C(=O)N[C@H](Cc1ccc(O)cc1)C(=O)N[C@@H](C(=O)O)[C@H](C)O)[C@H](C)O [RAP-103, All-D-TTNYT]
[6]
  CCL2 change: decrease
  CCL3 change: decrease
  CCR2 change: decrease
  CCR5 change: decrease
  MCP-1 change: decrease
  MIP-1α change: decrease
  TNF-α change: decrease
[7]
  IL-1β change: decrease
  IL-6 change: decrease
[8]
  inflammation, cytokine secretion and monocyte infiltration: blocks

## C[C@H](O)[C@@H](NC(=O)[C@@H](Cc1ccc(O)cc1)NC(=O)[C@@H](CC(N)=O)NC(=O)[C@H](NC(=O)[C@H](NC(=O)[C@H](NC(=O)[C@@H](CO)NC(=O)[C@@H](C)N)[C@H](C)O)[C@H](C)O)[C@H](C)O)C(=O)O [RAP-310]
[1]
  blocking of CCR8: comparable potency
[9]
  loss of potency in blocking CCL2-elicited chemotaxis compared to RAP-101: minimal loss of potency
[10]
  potency to block CCR5-mediated human monocyte chemotaxis: comparable potency

## Asn-Thr-Arg-Tyr-Arg
[11]
  inhibition of MCP-1 elicited chemotaxis: efficacious

## Asn-Thr-Ser-Tyr-Arg (NTSYR; Human immunodeficiency virus)
[11]
  inhibition of MCP-1 elicited chemotaxis: efficacious

## Asn-Thr-Ser-Tyr-Gly (NTSYG; Human immunodeficiency virus)
[11]
  inhibition of MCP-1 elicited chemotaxis: efficacious

## Glu-Thr-Trp-Tyr-Ser (ETWYS; Human immunodeficiency virus)
[11]
  inhibition of MCP-1 elicited chemotaxis: efficacious

## Ile-Asn-Asn-Tyr-Thr (INNYT; Human immunodeficiency virus)
[11]
  inhibition of MCP-1 elicited chemotaxis: efficacious

## Ile-Asp-Asn-Tyr Thr (IDNYT; Human immunodeficiency virus)
[11]
  inhibition of MCP-1 elicited chemotaxis: efficacious

## Ser-Ser-Thr-Tyr-Arg (SSTYR; Human immunodeficiency virus)
[11]
  inhibition of MCP-1 elicited chemotaxis: efficacious

## Thr-Thr-Ser-Tyr-Thr (TTSYT; Human immunodeficiency virus)
[11]
  inhibition of MCP-1 elicited chemotaxis: efficacious
